# Data as given in patent US20050043331A1, “Substituted 3-(2,5-disubstituted)pyridyl-4-aryl pyrroles for treating inflammatory diseases” (priority 2002, published 2005).
# Assays:
# P38 [1] = target: T1, P38 (Homo sapiens, UniProt Q16539); assay: P38 cell, 1 μM LJ; format: cell-based; design: unit not given here
# TNF-α [2] = assay: In-vitro whole cell assay for TNF-α inhibition (LPS-stimulated PBMC, ELISA); format: cell-based; details: TNF-α by ELISA
# Summary of the method: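 Human PBMC from heparinized venous blood (Ficoll-Hypaque), 1.67×10^6/mL in low-endotoxin RPMI/1% FCS, preincubated with compound 1 h at 37° C, then stimulated with LPS (200 ng/mL stock) overnight at 37° C. Duplicate wells. Supernatant TNF-α quantified by ELISA.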
# P38 [3] = target: T1, P38; assay: p38 inhibition in-vitro enzyme assay; format: biochemical; details: recombinant 6×His-p38
# Description: Purified recombinant 6×His-p38 and GST-ATF2 (both expressed in Baculovirus) were served as enzyme and substrate in our p38 inhibition assay. The enzyme reaction was performed in the anti-GST antibody pre-coated 96-well ELISA plate.
# A 96-well ELISA plate was coated with 100 μl/well of anti-GST antibody (from Amersham) at a concentration of […] and incubated overnight at 4° C. The ELISA plate was blocked with 100 μl/well of 1% BSA at 25° C. for at least 2 hours, then the plate was washed with 300 μl PBST. The enzyme reaction was started by adding 10 μl of p38 recombinant protein (0.05 nM in final concentration), 10 μl of compound in desired concentration, 10 μl of substrates (670 μM ATP, 200 nM GST-ATF2 in final concentration) and 70 μl of reaction buffer (50 mM HEPES, pH 7.4, 100 mM NaCl, 10 mM MgCl2) and the mixture was incubated at 37° C. for 30 min. Washing the reaction plate with 3×300 μl/well of PBST stopped the enzyme reaction. Detection of the phosphorylated ATF2 substrate was done by the addition of 100 μl of anti-Pi-ATF2 antibody (from Cell Signaling) at a 1:200 dilution. The mixture was incubated at 25° C. for 30 min. A solution of 100 μl of HRP-conjugated goat anti-rabbit antibody (from Pierce) at a 1:250 dilution was added and the mixture and incubated at 25° C. for 30 min. The plate was washed with 6×300 μI PBST and 100 μl of OPD substrate (from Sigma) was then added. The mixture was incubated at 25° C. for 10 min. before adding 100 μl of 3 N H2SO4. The plate was read at 490 nm.
# The % inhibition of each test compound was calculated by the following formula: % inhibition=[1−(sample−BKG)/(CTRL−BKG)]×100. The IC50 of each test compound was determined by a triplicate-8 point dose titration curve by Prism GraphPad program. […]
# TNF-α [4] = assay: In vivo rodent assay for inhibition of LPS-induced TNF-α production; design: species or system Mice (BALB/cJ females); details: Mus musculus, po, 0.5 h, 10 mg/kg oral, 0.5 h, read-out: Mouse 10 mg/kg % inhib 0.5 h
# Summary of the method: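 Female BALB/cJ mice or male Lewis rats, fasted 30 min, received compound orally (mg/kg) at various times before intraperitoneal LPS at 1 mg/kg. Blood was collected by cardiac puncture 1 h after LPS, and serum TNF-α was quantified by species-specific ELISA.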
# T1 sequence (Q16539 whole entry): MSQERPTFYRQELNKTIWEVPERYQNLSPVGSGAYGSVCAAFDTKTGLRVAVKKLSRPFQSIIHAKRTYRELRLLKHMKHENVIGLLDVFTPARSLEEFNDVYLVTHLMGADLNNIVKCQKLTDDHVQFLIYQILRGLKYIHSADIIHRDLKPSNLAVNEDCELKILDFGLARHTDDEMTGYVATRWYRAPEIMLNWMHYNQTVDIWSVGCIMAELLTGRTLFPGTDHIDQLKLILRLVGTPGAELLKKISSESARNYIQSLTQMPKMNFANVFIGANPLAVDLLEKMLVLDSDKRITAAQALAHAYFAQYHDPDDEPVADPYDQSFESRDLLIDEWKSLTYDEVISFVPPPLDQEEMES
Structure (SMILES),P38 cell 1 μM LJ (P38 [1]),IC50 (TNF-α [2]) [nM],IC50 (P38 [3]) [nM],inhibition in vivo at 10 mg/kg (TNF-α [4]) [%]
C[C@H](Nc1nccc(-c2cn(CCN3CCOCC3)cc2-c2ccc(F)cc2)n1)c1ccccc1 [Cpd 68],83,4,7,-21
CCOC(=O)c1[nH]cc(-c2ccncc2)c1-c1ccc(F)c(F)c1 [Cpd 69],17,560,> 10000,-32
CCOC(=O)c1c(-c2ccc(F)c(F)c2)c(-c2ccncc2)c(Br)n1C [Cpd 70],12,2720,> 10000,-36
CCOC(=O)c1[nH]cc(-c2ccncc2)c1-c1ccccc1 [Cpd 71],9,149,572,58
Fc1ccc(-c2c[nH]c(CNCc3ccncc3)c2-c2ccncc2)cc1 [Cpd 74],25,74,400,47
Cn1cc(-c2ccc(F)cc2)c(-c2ccncc2)c1N1CCNCC1 [Cpd 78],61,15,2020,75
CCOC(=O)c1c(-c2ccc(C)cc2)c(-c2ccncc2)c(N2CCNCC2)n1C [Cpd 83],53,60,3940,79
COC(=O)c1c(-c2ccc(F)cc2)c(-c2ccncc2)c(N2CCc3ccccc3C2)n1C [Cpd 93],20,66,> 10000,32
CCOC(=O)c1c(-c2ccc(F)cc2)c(-c2ccncc2)c(N2CCNCC2)n1C [Cpd 96],22,16,> 10000,79
CNC(=O)c1c(-c2ccc(F)cc2)c(-c2ccncc2)c(N2CCNCC2)n1C [Cpd 99],7,106,> 10000,-7
CCOC(=O)c1c(-c2cc(F)cc(F)c2)c(-c2ccncc2)c(N2CCNCC2)n1C [Cpd 100],12,93,> 10000,75
COC(=O)c1c(-c2ccc(F)cc2)c(-c2ccncc2)c(Cc2ccc(N(C)C)cc2)n1C [Cpd 102],12,118,> 10000,15
COC(=O)c1c(-c2ccc(F)cc2)c(-c2ccncc2)c(NCc2ccncc2)n1C [Cpd 103],20,145,> 10000,-22
CCOC(=O)c1c(-c2cccc(C(F)(F)F)c2)c(-c2ccncc2)c(N2CCNCC2)n1C [Cpd 104],11,21,> 10000,83
COC(=O)c1c(-c2cccc(F)c2)c(-c2ccncc2)c(N2CCNCC2)n1C [Cpd 105],31,69,> 10000,49
CCC(=O)c1c(-c2ccc(F)cc2)c(-c2ccncc2)c(N2CCNCC2)n1C [Cpd 106],21,67,> 10000,32
